ChEMBL document CHEMBL4715855, “N-phenyl ureidobenzenesulfonates, a novel class of promising human dihydroorotate dehydrogenase inhibitors” (Bioorg Med Chem, 2020)
pIC50: −log10 of the molar value.

Experiments:
Format in all cases: functional, cell-based
SK-OV-3 = test: Antiproliferative activity against human SK-OV-3 cells assessed as cell growth inhibition measured after 48 hrs by sulforhodamine B assay; settings: SK-OV-3, 48 h
OVCAR-4 = test: Antiproliferative activity against human OVCAR-4 cells assessed as cell growth inhibition measured after 48 hrs by sulforhodamine B assay; settings: OVCAR-4, 48 h
OVCAR-3 = test: Antiproliferative activity against human OVCAR-3 cells assessed as cell growth inhibition measured after 48 hrs by sulforhodamine B assay; settings: OVCAR-3, 48 h
OVCAR-5 = test: Antiproliferative activity against human OVCAR-5 cells assessed as cell growth inhibition measured after 48 hrs by sulforhodamine B assay; settings: OVCAR-5, 48 h
COLO 205 = test: Antiproliferative activity against human COLO 205 cells assessed as cell growth inhibition measured after 48 hrs by sulforhodamine B assay; settings: COLO 205, 48 h
Malme-3M = test: Antiproliferative activity against human Malme-3M cells assessed as cell growth inhibition measured after 48 hrs by sulforhodamine B assay
SK-MEL-2 = test: Antiproliferative activity against human SK-MEL-2 cells assessed as cell growth inhibition measured after 48 hrs by sulforhodamine B assay; settings: SK-MEL-2, 48 h
SNB-19 = test: Antiproliferative activity against human SNB-19 cells assessed as cell growth inhibition measured after 48 hrs by sulforhodamine B assay; settings: SNB-19, 48 h
ACHN = test: Antiproliferative activity against human ACHN cells assessed as cell growth inhibition measured after 48 hrs by sulforhodamine B assay
SK-MEL-5 = test: Antiproliferative activity against human SK-MEL-5 cells assessed as cell growth inhibition measured after 48 hrs by sulforhodamine B assay; settings: SK-MEL-5, 48 h
SF-268 = test: Antiproliferative activity against human SF-268 cells assessed as cell growth inhibition measured after 48 hrs by sulforhodamine B assay; settings: SF-268, 48 h
SK-MEL-28 = test: Antiproliferative activity against human SK-MEL-28 cells assessed as cell growth inhibition measured after 48 hrs by sulforhodamine B assay; settings: SK-MEL-28, 48 h
HCC 2998 = test: Antiproliferative activity against human HCC 2998 cells assessed as cell growth inhibition measured after 48 hrs by sulforhodamine B assay; settings: HCC 2998, 48 h
HOP-62 = test: Antiproliferative activity against human HOP-62 cells assessed as cell growth inhibition measured after 48 hrs by sulforhodamine B assay; settings: HOP-62, 48 h
HT-29 [1] = test: Antiproliferative activity against human HT-29 cells assessed as cell growth inhibition measured after 48 hrs in presence of uridine by SRB assay; settings: HT-29, 48 h
Hs-578T = test: Antiproliferative activity against human Hs-578T cells assessed as cell growth inhibition measured after 48 hrs by sulforhodamine B assay
SF-539 = test: Antiproliferative activity against human SF-539 cells assessed as cell growth inhibition measured after 48 hrs by sulforhodamine B assay; settings: SF-539, 48 h
SN12C = test: Antiproliferative activity against human SN12C cells assessed as cell growth inhibition measured after 48 hrs by sulforhodamine B assay
UO-31 = test: Antiproliferative activity against human UO-31 cells assessed as cell growth inhibition measured after 48 hrs by sulforhodamine B assay; settings: UO-31, 48 h
NCI/ADR-RES = test: Antiproliferative activity against human NCI/ADR-RES cells assessed as cell growth inhibition measured after 48 hrs by sulforhodamine B assay
PC-3 = test: Antiproliferative activity against human PC-3 cells assessed as cell growth inhibition measured after 48 hrs by sulforhodamine B assay; settings: PC-3, 48 h
MDA-MB-231 = test: Antiproliferative activity against human MDA-MB-231/ATCC cells assessed as cell growth inhibition measured after 48 hrs by sulforhodamine B assay; settings: MDA-MB-231, 48 h
U-251 = test: Antiproliferative activity against human U-251 cells assessed as cell growth inhibition measured after 48 hrs by sulforhodamine B assay; settings: U-251, 48 h
RPMI-8226 = test: Antiproliferative activity against human RPMI-8226 cells assessed as cell growth inhibition measured after 48 hrs by sulforhodamine B assay; settings: RPMI-8226, 48 h
BT-549 = test: Antiproliferative activity against human BT-549 cells assessed as cell growth inhibition measured after 48 hrs by sulforhodamine B assay; settings: BT-549, 48 h
MCF7 [2] = test: Antiproliferative activity against human MCF7 cells assessed as cell growth inhibition measured after 48 hrs in presence of uridine by SRB assay; settings: MCF7, 48 h
TK-10 = test: Antiproliferative activity against human TK-10 cells assessed as cell growth inhibition measured after 48 hrs by sulforhodamine B assay; settings: TK-10, 48 h
IGROV-1 = test: Antiproliferative activity against human IGROV-1 cells assessed as cell growth inhibition measured after 48 hrs by sulforhodamine B assay; settings: IGROV-1, 48 h
MOLT-4 = test: Antiproliferative activity against human MOLT-4 cells assessed as cell growth inhibition measured after 48 hrs by sulforhodamine B assay; settings: MOLT-4, 48 h
T47D = test: Antiproliferative activity against human T47D cells assessed as cell growth inhibition measured after 48 hrs by sulforhodamine B assay
HCT-116 = test: Antiproliferative activity against human HCT-116 cells assessed as cell growth inhibition measured after 48 hrs by sulforhodamine B assay; settings: HCT-116, 48 h
HT-1080 [3] = test: Antiproliferative activity against human HT-1080 cells assessed as cell growth inhibition measured after 48 hrs by SRB assay; settings: HT-1080, 48 h
KM12 = test: Antiproliferative activity against human KM12 cells assessed as cell growth inhibition measured after 48 hrs by sulforhodamine B assay; settings: KM12, 48 h
M21 [4] = test: Antiproliferative activity against human M21 cells assessed as cell growth inhibition measured after 48 hrs in presence of uridine by SRB assay; settings: M21, 48 h
UACC-257 = test: Antiproliferative activity against human UACC-257 cells assessed as cell growth inhibition measured after 48 hrs by sulforhodamine B assay; settings: UACC-257, 48 h
A498 = test: Antiproliferative activity against human A498 cells assessed as cell growth inhibition measured after 48 hrs by sulforhodamine B assay; settings: A498, 48 h
CAKI-1 = test: Antiproliferative activity against human CAKI-1 cells assessed as cell growth inhibition measured after 48 hrs by sulforhodamine B assay; settings: CAKI-1, 48 h
A549 = test: Antiproliferative activity against human A549/ATCC cells assessed as cell growth inhibition measured after 48 hrs by sulforhodamine B assay; settings: A549, 48 h
NCI-H460 = test: Antiproliferative activity against human NCI-H460 cells assessed as cell growth inhibition measured after 48 hrs by sulforhodamine B assay; settings: NCI-H460, 48 h
SF-295 = test: Antiproliferative activity against human SF-295 cells assessed as cell growth inhibition measured after 48 hrs by sulforhodamine B assay; settings: SF-295, 48 h
NCI-H322M = test: Antiproliferative activity against human NCI-H322M cells assessed as cell growth inhibition measured after 48 hrs by sulforhodamine B assay
MDA-MB-435 = test: Antiproliferative activity against human MDA-MB-435 cells assessed as cell growth inhibition measured after 48 hrs by sulforhodamine B assay; settings: MDA-MB-435, 48 h
NCI-H23 = test: Antiproliferative activity against human NCI-H23 cells assessed as cell growth inhibition measured after 48 hrs by sulforhodamine B assay; settings: NCI-H23, 48 h
NCI-H522 = test: Antiproliferative activity against human NCI-H522 cells assessed as cell growth inhibition measured after 48 hrs by sulforhodamine B assay; settings: NCI-H522, 48 h
MCF7 [5] = test: Antiproliferative activity against human MCF7 cells assessed as cell growth inhibition measured after 48 hrs by SRB assay; settings: MCF7, 48 h; for pIC50: read-out: IC50
M21 [6] = test: Antiproliferative activity against human M21 cells assessed as cell growth inhibition measured after 48 hrs by SRB assay; settings: M21, 48 h
UACC-62 = test: Antiproliferative activity against human UACC-62 cells assessed as cell growth inhibition measured after 48 hrs by sulforhodamine B assay; settings: UACC-62, 48 h
LOX IMVI = test: Antiproliferative activity against human LOX IMVI cells assessed as cell growth inhibition measured after 48 hrs by sulforhodamine B assay
DU-145 = test: Antiproliferative activity against human DU-145 cells assessed as cell growth inhibition measured after 48 hrs by sulforhodamine B assay; settings: DU-145, 48 h
HT-1080 [7] = test: Antiproliferative activity against human HT-1080 cells assessed as cell growth inhibition measured after 48 hrs in presence of uridine by SRB assay; settings: HT-1080, 48 h
SW-620 = test: Antiproliferative activity against human SW-620 cells assessed as cell growth inhibition measured after 48 hrs by sulforhodamine B assay; settings: SW-620, 48 h
SNB-75 = test: Antiproliferative activity against human SNB-75 cells assessed as cell growth inhibition measured after 48 hrs by sulforhodamine B assay; settings: SNB-75, 48 h
HCT-15 = test: Antiproliferative activity against human HCT-15 cells assessed as cell growth inhibition measured after 48 hrs by sulforhodamine B assay; settings: HCT-15, 48 h
NCI-H226 = test: Antiproliferative activity against human NCI-H226 cells assessed as cell growth inhibition measured after 48 hrs by sulforhodamine B assay; settings: NCI-H226, 48 h
786-0 = test: Antiproliferative activity against human 786-0 cells assessed as cell growth inhibition measured after 48 hrs by sulforhodamine B assay; settings: 786-0, 48 h
K562 = test: Antiproliferative activity against human K562 cells assessed as cell growth inhibition incubated for 48 hrs by sulforhodamine B assay; settings: K562, 48 h
M14 = test: Antiproliferative activity against human M14 cells assessed as cell growth inhibition measured after 48 hrs by sulforhodamine B assay; settings: M14, 48 h
OVCAR-8 = test: Antiproliferative activity against human OVCAR-8 cells assessed as cell growth inhibition measured after 48 hrs by sulforhodamine B assay; settings: OVCAR-8, 48 h
HOP-92 = test: Antiproliferative activity against human HOP-92 cells assessed as cell growth inhibition measured after 48 hrs by sulforhodamine B assay; settings: HOP-92, 48 h
HT-29 [8] = test: Antiproliferative activity against human HT-29 cells assessed as cell growth inhibition measured after 48 hrs by SRB assay; settings: HT-29, 48 h; for pIC50: read-out: IC50
CCRF-CEM = test: Antiproliferative activity against human CCRF-CEM cells assessed as cell growth inhibition measured after 48 hrs by sulforhodamine B assay
SR = test: Antiproliferative activity against human SR cells assessed as cell growth inhibition measured after 48 hrs by sulforhodamine B assay
RXF 393 = test: Antiproliferative activity against human RXF 393 cells assessed as cell growth inhibition measured after 48 hrs by sulforhodamine B assay; settings: RXF 393, 48 h

## Cc1c(-c2ccc(-c3ccccc3F)cc2)nc2ccc(F)cc2c1C(=O)O [BREQUINAR]
SK-OV-3
  pIC50: 4.79
OVCAR-4
  pIC50: 5.56
OVCAR-3
  pIC50: 5.43
OVCAR-5
  pIC50: 4.41
COLO 205
  pIC50: 6.29
Malme-3M
  pIC50: 4.81
SK-MEL-2
  pIC50: 4.21
SNB-19
  pIC50: 5.90
ACHN
  pIC50: 6.82
SK-MEL-5
  pIC50: 5.86
SF-268
  pIC50: 6.43
SK-MEL-28
  pIC50: 5.00
HCC 2998
  pIC50: 5.02
HOP-62
  pIC50: 5.96
HT-29 [1]
  pIC50: 4.62
Hs-578T
  pIC50: 5.16
SF-539
  pIC50: 6.46
SN12C
  pIC50: 5.75
UO-31
  pIC50: 5.94
NCI/ADR-RES
  pIC50: 5.66
PC-3
  pIC50: 6.12
MDA-MB-231
  pIC50: 5.44
U-251
  pIC50: 6.71
RPMI-8226
  pIC50: 6.43
BT-549
  pIC50: 4.24
MCF7 [2]
  pIC50: 4.60
TK-10
  pIC50: 4.79
IGROV-1
  pIC50: 6.52
MOLT-4
  pIC50: 7.05
T47D
  pIC50: 4.77
HCT-116
  pIC50: 7.06
HT-1080 [3]
  pIC50: 6.68
KM12
  pIC50: 6.68
M21 [4]
  pIC50: 4.60
UACC-257
  pIC50: 4.90
A498
  pIC50: 4.30
CAKI-1
  pIC50: 6.04
A549
  pIC50: 6.63
NCI-H460
  pIC50: 6.89
SF-295
  pIC50: 6.62
NCI-H322M
  pIC50: 4.82
MDA-MB-435
  pIC50: 6.43
NCI-H23
  pIC50: 4.67
NCI-H522
  pIC50: 5.70
MCF7 [5]
  pIC50: 5.29
MCF7 [5]; read-out: pIC50 (converted)
  IC50: 269 nM
M21 [6]
  pIC50: 6.24
UACC-62
  pIC50: 6.58
LOX IMVI
  pIC50: 7.03
DU-145
  pIC50: 6.58
HT-1080 [7]
  pIC50: 4.77
SW-620
  pIC50: 6.42
SNB-75
  pIC50: 4.09
HCT-15
  pIC50: 7.25
NCI-H226
  pIC50: 4.71
786-0
  pIC50: 6.71
K562
  pIC50: 6.84
M14
  pIC50: 5.33
OVCAR-8
  pIC50: 6.49
HOP-92
  pIC50: 4.45
HT-29 [8]
  pIC50: 6.23
HT-29 [8]; read-out: pIC50 (converted)
  IC50: 372 nM
CCRF-CEM
  pIC50: 6.55
SR
  pIC50: 6.37
RXF 393
  pIC50: 4.93

## Cc1oncc1C(=O)Nc1ccc(C(F)(F)F)cc1 [LEFLUNOMIDE]
HT-29 [1]
  pIC50: 4.12
MCF7 [2]
  pIC50: 4.24
HT-1080 [3]
  pIC50: 4.52
M21 [4]
  pIC50: 4.08
MCF7 [5]
  pIC50: 4.26
M21 [6]
  pIC50: 4.08
HT-1080 [7]
  pIC50: 4.42
HT-29 [8]
  pIC50: 4.12
